Reference: PubChem BioAssay (NCI)
Where “and” joins values, the source holds several entries; their conditions need not be identical. Identical values can stand only once.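 Briefly, cells in 96-well plates were exposed to five compound concentrations for 48 h, and endpoints were estimated by linear interpolation. GI50 is the concentration that inhibits growth by half. TGI is the concentration that stops growth completely.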

Assays:
Assay in all cases: DTP human tumour cell line panel, 48 h
[1] = test system: 786-0 renal
[2] = test system: COLO 205 colon
[3] = test system: EKVX NSCLC
[4] = test system: HCT-15 colon
[5] = test system: HL-60(TB) leukemia
[6] = test system: MALME-3M melanoma
[7] = test system: OVCAR-5 ovarian
[8] = test system: SF-539 CNS
[9] = test system: SK-MEL-2 melanoma
[10] = test system: SN12C renal

Row | Structure (SMILES) | TGI [1] | GI50 [2] | GI50 [3] | TGI [3] | GI50 [4] | TGI [4] | GI50 [5] | GI50 [6] | TGI [6] | GI50 [7] | TGI [7] | GI50 [8] | TGI [8] | TGI [9] | GI50 [10] | TGI [10] | TGI [2] | TGI [5] | GI50 [1] | GI50 [9]
1 | CCc1c2c(nc3cc4c(c(N)c13)OCO4)-c1cc3c(c(=O)n1C2)COC(=O)[C@]3(O)CC | > 100 µM | 696 nM | 1930 nM and 962 nM | 48.7 µM | 277 nM and 178 nM | > 100 µM | < 1 nM | 0.0276 µM | 4.25 µM | 702 nM and 94.8 nM | 0.409 µM | < 1 nM | 0.038 µM | 0.0424 µM | < 1 nM | > 100 µM |  |  |  | 
2 | COc1cccc(NC(=O)C(C)(C)C)c1C=O | > 100 µM |  |  | > 100 µM |  | > 100 µM |  |  | > 100 µM |  | > 100 µM |  | > 100 µM | > 100 µM |  | > 100 µM | > 100 µM | > 100 µM |  | 
3 | CCCCCCCCCCCCNC(=O)[C@H]1CSC(c2cc3ccccc3s2)N1 (stereo partly specified) | 9.11 µM | 6460 nM | 951 nM | 2.69 µM | 3690 nM | 8.17 µM | 154 nM | 5.75 µM | 10.9 µM | 4160 nM | 8.53 µM | 1360 nM | 4.79 µM | 6.49 µM | 2800 nM | 7.24 µM | 12.3 µM | 8.69 µM | 4600 nM | 1960 nM
4 | C=CCCOC(=O)CO[N+](=O)[O-] | > 100 µM |  |  | > 100 µM |  | > 100 µM |  |  | > 100 µM |  | > 100 µM |  | > 100 µM | > 100 µM |  | > 100 µM | > 100 µM | 70.1 µM |  | 
5 | Cc1ccc2c(c1)C(C)Cc1c(ncnc1-n1cnc3cc(C)ccc31)N2C (stereo unspecified) | 12.5 µM | 22.4 nM | 63.4 nM | 23.8 µM | 33.4 nM | 11.7 µM | 25 nM | 11 µM | 23.7 µM | 48 nM | 22.2 µM | 21.8 nM | 0.0593 µM | 15.8 µM | 86 nM | 16.3 µM | 0.0553 µM | 0.0557 µM | 37.1 nM | 41.9 nM
6 | N.N.N.N.O=NN1CCCCCC1(P(=O)([O-])[O-])P(=O)([O-])[O-].[Pt+4].[Pt+4] | > 100 µM | > 100000 nM | > 100000 nM | > 100 µM | > 100000 nM | > 100 µM | > 100000 nM | > 100 µM | > 100 µM | > 100000 nM | > 100 µM | > 100000 nM | > 100 µM | > 100 µM | > 100000 nM | > 100 µM | > 100 µM | > 100 µM | > 100000 nM | 79600 nM
7 | C=CCCCn1ccc2ccccc21 | > 100 µM |  |  | > 100 µM |  | > 100 µM |  |  | > 100 µM |  | > 100 µM |  | > 100 µM | > 100 µM |  | > 100 µM | > 100 µM | > 100 µM |  | 
8 | NC(=O)C1c2ccccc2C=Cc2ccccc21 | > 100 µM | > 100000 nM | > 100000 nM | > 100 µM | > 100000 nM | > 100 µM | > 100000 nM | > 100 µM | > 100 µM | > 100000 nM | > 100 µM | > 100000 nM | > 100 µM | > 100 µM | > 100000 nM | > 100 µM | > 100 µM | > 100 µM | > 100000 nM | > 100000 nM
9 | NC(=O)/C(=C\c1ccncc1)c1cccc2ccccc12 | > 100 µM |  |  | > 100 µM |  | > 100 µM |  |  | > 100 µM |  | > 100 µM |  | > 100 µM | > 100 µM |  | > 100 µM | > 100 µM | > 100 µM |  | 
10 | Cc1ccc(-n2c3nc(=O)n(C)c(=O)c-3nc3ccccc32)cc1 | > 100 µM |  |  | 38.4 µM |  | 23.7 µM |  |  | 27.2 µM |  | 45.3 µM |  | > 100 µM | 37.2 µM |  | 34 µM | 14.8 µM | 35.8 µM |  | 
11 | CC1CN(c2ccc(Cl)cc2)CC(C)(C)OC(=O)O1 (stereo unspecified) | > 100 µM |  |  | > 100 µM |  | > 100 µM |  |  | > 100 µM |  | > 100 µM |  | > 100 µM | > 100 µM |  | > 100 µM | > 100 µM | > 100 µM |  | 
12 | CN[C@@H](C)C(=O)N[C@H]1CN(C(=O)CC(C)C)CC[C@H]2CC[C@@H](C(=O)NC(c3ccccc3)c3ccccc3)N2C1=O | > 100 µM | > 79800 nM | > 100000 nM | > 100 µM | > 100000 nM | > 100 µM | 29100 nM | 4.29 µM | > 53.9 µM | > 100000 nM | > 100 µM | 1780 nM | > 100 µM | > 100 µM | > 100000 nM | > 100 µM | > 100 µM | > 100 µM | > 100000 nM | 43700 nM
13 | O=c1[nH]cc(/C=N\Nc2ccccc2)c(=O)[nH]1 | > 100 µM |  |  | > 100 µM |  | > 100 µM |  |  | > 100 µM |  | > 100 µM |  | > 100 µM | > 100 µM |  | > 100 µM | > 100 µM | > 100 µM |  | 
14 | CCN(CC)CC.CCOc1ccc(NC(=O)N=C=[N-])cc1.[CH-]1CCCCC1.[CH-]1CCCCC1.[CH-]1CCCCC1.[Cl-].[Sn+4] | 0.0372 µM | 18.4 nM | 43 nM | 0.143 µM | 19.8 nM | 0.0555 µM | 18.4 nM | 0.0452 µM | 0.119 µM | 42.7 nM | 0.114 µM | 23.4 nM | 0.052 µM | 0.0964 µM | 23.3 nM | 0.0634 µM | 0.0422 µM | 0.0584 µM | 15.7 nM | 37.6 nM
15 | CNC(=O)c1c(NC(=O)c2ccc(C(F)(F)F)cc2)sc2c1CCC(=O)C2 | 15.1 µM | 603 nM | 890 nM | 6.05 µM | 239 nM | 1.76 µM | 363 nM | 1.11 µM | 3.88 µM | 607 nM | 2.76 µM | 386 nM | 1.72 µM | 5.46 µM | 690 nM | 24.1 µM | 3.1 µM | 2.09 µM | 415 nM | 1360 nM
